For data set [1], the target named is T1, human GLP-1 receptor (Homo sapiens, UniProt P43220).
T1 construct: expressed in transfected cells; membranes
The data set can be described thus: GLP-1 receptor binding: displacement of 125I-GLP-1 (SPA) at low and high albumin. As to the method:
The purpose of this experiment is to investigate the binding to the GLP-1 receptor of the GLP-1 derivatives, and how the binding is potentially influenced by the presence of albumin. This is done in an in vitro experiment as described below.
In order to test the binding of the derivatives to albumin, the assay was performed with a low concentration of albumin (0.001%—corresponding to the residual amount thereof in the tracer), as well as with a high concentration of albumin (2.0% added). A shift in the binding affinity, IC50, is an indication that the peptide in question binds to albumin, and thereby a prediction of a potential protracted pharmacokinetic profile of the peptide in question in animal models.
Species (in vitro): Hamster
Biological End Point: Receptor Binding
A stable transfected cell line and a high expressing clone were selected for screening. The cells were grown at 5% CO2 in DMEM, 10% FCS, 1% Pen/Strep (Penicillin/Streptomycin) and 1.0 mg/ml of the selection marker G418.
The cells (approx. 80% confluence) were washed twice in PBS and harvested with Versene (aqueous solution of the tetrasodium salt of ethylenediaminetetraacetic acid), following which they were separated by centrifugation at 1000 rpm for 5 min. The cells/cell pellet must be kept on ice to the extent possible in the subsequent steps. The cell pellet was homogenised with Ultrathurrax for 20-30 seconds in a suitable amount of Buffer 1 (depending on the amount of cells, but e.g. 10 ml). The homogenate was centrifuged at 20000 rpm for 15 minutes. The pellet was resuspended (homogenised) in 10 ml Buffer 2 and re-centrifuged. This step was repeated once more. The resulting pellet was resuspended in Buffer 2, and the protein concentration was determined. The membranes were stored at minus 80° C.
Buffer 1: 20 mM Na-HEPES+10 mM EDTA, pH 7.4
Buffer 2: 20 mM Na-HEPES+0.1 mM EDTA, pH 7.4
Test compounds, membranes, SPA-particles and [^125I]-GLP-1(7-36)NH2 were diluted in assay buffer. 50 ul (micro liter) HSA (“high albumin” experiment containing 2% HSA), or buffer (“low albumin” experiment containing 0.001% HSA), was added to Optiplate, and 25 ul of test compounds were added. 5-10 ug membrane protein/sample was added (50 ul) corresponding to 0.1-0.2 mg protein/ml (to be preferably optimised for each membrane preparation). SPA-particles (Wheatgerm agglutinin SPA beads, Perkin Elmer, #RPNQ0001) were added in an amount of 0.5 mg/well (50 ul). The incubation was started with [^125I]-GLP-1]-(7-36)NH2 (final concentration 0.06 nM corresponding to 49.880 DPM, 25 ul). The plates were sealed with PlateSealer and incubated for 120 minutes at 30° C. while shaking. The plates were centrifuged (1500 rpm, 10 min) and counted in Topcounter.

The nature of data set [2]: Estimate of oral bioavailability: gut injection in rat (caprate), exposure in plasma. In kind it is in vivo. The settings on record: injection in jejunum, 1000 uM in 55 mg/ml sodium caprate, plasma concentration (pM) at 30 min divided by dosing solution concentration (μM), mean n=4. As to the method:
The GLP-1 derivatives were tested in a concentration of 1000 uM in a solution of 55 mg/ml sodium caprate.
Male Sprague Dawley rats with a body weight upon arrival of approximately 240 g were obtained from Taconic (Denmark) and assigned to the different treatments by simple randomisation, 4 rats per group.
The GLP-1 derivatives were administered in the jejunum either in the proximal part (10 cm distal for the duodenum) or in the mid-intestine (50 cm proximal for the cecum). A PE50-catheter, 10 cm long was inserted into the jejunum, forwarded at least 1.5 cm into the jejunum, and secured before dosing by ligature around the gut and the catheter with 3/0 suture distal to tip to prevent leak or catheter displacement. Catheter was placed without syringe and needle and 2 ml saline was administered into abdomen before closing the incision with wound clips.
100 μl of the respective GLP-1 derivative was injected into the jejunal lumen through the catheter with a 1 ml syringe. Subsequently, 200 μl of air was pushed into the jejunal lumen with another syringe to “flush” the catheter. This syringe was leaved connected to the catheter to prevent flow back into the catheter.
Blood samples (200 ul) were collected at desired intervals (usually at times 0, 10, 30, 60, 120 and 240 min) into EDTA tubes from the tail vein and centrifuged 5 minutes, 10000G, at 4° C. within 20 minutes. […] 12, p. 240-247. The donor beads were coated with streptavidin, while acceptor beads were conjugated with a monoclonal antibody recognising a mid-/C-terminal epitope of the peptide. Another monoclonal antibody, specific for the N-terminus, was biotinylated. The three reactants were combined with the analyte and formed a two-sited immuno-complex. Illumination of the complex released singlet oxygen atoms from the donor beads, which were channeled into the acceptor beads and triggered chemiluminescence which was measured in an Envision plate reader. The amount of light was proportional to the concentration of the compound.
After the blood sampling the rats were sacrificed under anaesthesia and the abdomen was opened to verify correct catheter placement.
The mean (n=4) plasma concentrations (pmol/l) were determined as a function of time.

Numbered stars: 1 amine (or outer) side, 2 acyl side, 3 side chain; on linkers, the order of the positions; unused ones are H or OH. Square brackets hold non-standard residues; d marks the D form. Side chains are listed from the residue outwards. Peptide text beside a SMILES is read from it. * marks the point of attachment. γGlu = O=C(O)[C@H](CCC(=O)[*:2])N[*:1]; C14 diacid = O=C(O)CCCCCCCCCCCCC(=O)*; AEEA = NCCOCCOCC(=O)O; Aib = CC(C)(N)C(=O)O

T1 sequence (P43220 24-463): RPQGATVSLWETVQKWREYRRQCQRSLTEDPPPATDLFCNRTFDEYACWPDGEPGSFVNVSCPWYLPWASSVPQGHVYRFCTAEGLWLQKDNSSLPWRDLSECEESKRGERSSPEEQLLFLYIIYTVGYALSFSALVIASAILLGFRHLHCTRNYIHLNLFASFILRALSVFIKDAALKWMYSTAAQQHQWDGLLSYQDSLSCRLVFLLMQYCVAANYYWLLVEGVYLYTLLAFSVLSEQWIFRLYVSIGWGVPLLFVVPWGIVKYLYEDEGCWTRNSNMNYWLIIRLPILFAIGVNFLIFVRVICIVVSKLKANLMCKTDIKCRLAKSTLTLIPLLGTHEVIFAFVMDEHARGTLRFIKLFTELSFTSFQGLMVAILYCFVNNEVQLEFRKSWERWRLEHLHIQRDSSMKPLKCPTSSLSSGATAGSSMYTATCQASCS

For `CC[C@H](C)[C@H](NC(=O)[C@H](Cc1ccccc1)NC(=O)[C@H](CCCCNC(=O)COCCOCCNC(=O)COCCOCCNC(=O)CC[C@H](NC(=O)CCCCCCCCCCCCC(=O)O)C(=O)O)NC(=O)[C@H](CCCNC(=N)N)NC(=O)[C@@H](NC(=O)[C@H](C)NC(=O)[C@H](CCC(N)=O)NC(=O)[C@H](CCCCNC(=O)COCCOCCNC(=O)COCCOCCNC(=O)CC[C@H](NC(=O)CCCCCCCCCCCCC(=O)O)C(=O)O)NC(=O)[C@H](CCC(=O)O)NC(=O)[C@H](CC(C)C)NC(=O)[C@H](Cc1ccc(O)cc1)NC(=O)[C@H](CO)NC(=O)[C@H](CO)NC(=O)[C@@H](NC(=O)[C@H](CC(=O)O)NC(=O)[C@H](CO)NC(=O)[C@@H](NC(=O)[C@H](Cc1ccccc1)NC(=O)[C@@H](NC(=O)CNC(=O)[C@H](CCC(=O)O)NC(=O)C(C)(C)NC(=O)[C@@H](N)Cc1c[nH]cn1)[C@@H](C)O)[C@@H](C)O)C(C)C)C(C)C)C(=O)N[C@@H](C)C(=O)N[C@@H](Cc1c[nH]cn1)C(=O)N[C@@H](CC(C)C)C(=O)N[C@H](C(=O)N[C@@H](CCCNC(=N)N)C(=O)NCC(=O)N[C@@H](CCCNC(=N)N)C(=O)NCC(=O)O)C(C)C` [Example 7, N^ε22-[2-[2-[2-[[2-[2-[2-[[(4S)-4-carboxy-4-(13-carboxytridecanoylamino)butanoyl]amino]ethoxy]ethoxy]acetyl]amino]ethoxy]ethoxy]acetyl],N^ε27-[2-[2-[2-[[2-[2-[2-[[(4S)-4-carboxy-4-(13-carboxytridecanoylamino)butanoyl]amino]ethoxy]ethoxy]acetyl]amino]ethoxy]ethoxy]acetyl]-[Aib^8,Lys^22,Val^25,Arg^26,Lys^27,His^31,Arg^34]-GLP-1-(7-37)-peptide] (H-H[Aib]EGTFTSDVSSYLEK([AEEA-AEEA-γGlu-C14 diacid])QAVRK([AEEA-AEEA-γGlu-C14 diacid])FIAHLVRGRG-OH), in data set [1] (2.0% HSA vs 0.001% HSA), the “Ratio [(IC50/nM) high HSA]/[(IC50/nM) low HSA]” value is listed as 174. Besides, in data set [2], the “Dose-corrected exposure at 30 min” value is reported as 99.
For the molecule `CC[C@H](C)[C@H](NC(=O)[C@H](Cc1ccccc1)NC(=O)[C@H](CCCCNC(=O)CC[C@H](NC(=O)COCCOCCNC(=O)COCCOCCNC(=O)CCCCCCCCCCCCC(=O)O)C(=O)O)NC(=O)[C@H](CCCNC(=N)N)NC(=O)[C@@H](NC(=O)[C@H](C)NC(=O)[C@H](CCC(N)=O)NC(=O)[C@H](CCCCNC(=O)CC[C@H](NC(=O)COCCOCCNC(=O)COCCOCCNC(=O)CCCCCCCCCCCCC(=O)O)C(=O)O)NC(=O)[C@H](CCC(=O)O)NC(=O)[C@H](CC(C)C)NC(=O)[C@H](Cc1ccc(O)cc1)NC(=O)[C@H](CO)NC(=O)[C@H](CO)NC(=O)[C@@H](NC(=O)[C@H](CC(=O)O)NC(=O)[C@H](CO)NC(=O)[C@@H](NC(=O)[C@H](Cc1ccccc1)NC(=O)[C@@H](NC(=O)CNC(=O)[C@H](CCC(=O)O)NC(=O)[C@H](C)NC(=O)[C@@H](N)Cc1c[nH]cn1)[C@@H](C)O)[C@@H](C)O)C(C)C)C(C)C)C(=O)N[C@@H](CCC(=O)O)C(=O)N[C@@H](Cc1c[nH]c2ccccc12)C(=O)N[C@@H](CC(C)C)C(=O)N[C@H](C(=O)N[C@@H](CCC(N)=O)C(=O)NCC(=O)N[C@@H](CCCNC(=N)N)C(=O)NCC(=O)O)C(C)C` [Example 20, N^ε22-[(4S)-4-carboxy-4-[[2-[2-[2-[[2-[2-[2-(13-carboxytridecanoylamino)ethoxy]ethoxy]acetyl]amino]ethoxy]ethoxy]acetyl]amino]butanoyl], N^ε27-[(4S)-4-carboxy-4-[[2-[2-[2-[[2-[2-[2-(13-carboxytridecanoylamino)ethoxy]ethoxy]acetyl]amino]ethoxy]ethoxy]acetyl]amino]butanoyl]-_[Lys^22,Val^25TArg^26,Lys^27,Glu^30,Gln^34]-GLP-1-(7-37)-peptide] (H-HAEGTFTSDVSSYLEK([γGlu-AEEA-AEEA-C14 diacid])QAVRK([γGlu-AEEA-AEEA-C14 diacid])FIEWLVQGRG-OH; N-terminus and C-terminus assumed), in data set [1] (low albumin, 0.001% HSA, read-out: IC50/nM (low HSA)), the IC50 worked out at 0.19 nM. Further, the “Dose-corrected exposure at 30 min” value in data set [2] is 123.
Take `CC[C@H](C)[C@H](NC(=O)[C@H](Cc1ccccc1)NC(=O)[C@H](CCCCNC(=O)COCCOCCNC(=O)COCCOCCNC(=O)CC[C@H](NC(=O)CCCCCCCCCCCCC(=O)O)C(=O)O)NC(=O)[C@H](CCCNC(=N)N)NC(=O)[C@@H](NC(=O)[C@H](C)NC(=O)[C@H](CCC(N)=O)NC(=O)[C@H](CCCCNC(=O)COCCOCCNC(=O)COCCOCCNC(=O)CC[C@H](NC(=O)CCCCCCCCCCCCC(=O)O)C(=O)O)NC(=O)[C@H](CCC(=O)O)NC(=O)[C@H](CC(C)C)NC(=O)[C@H](Cc1ccc(O)cc1)NC(=O)[C@H](CO)NC(=O)[C@H](CO)NC(=O)[C@@H](NC(=O)[C@H](CC(=O)O)NC(=O)[C@H](CO)NC(=O)[C@@H](NC(=O)[C@H](Cc1ccccc1)NC(=O)[C@@H](NC(=O)CNC(=O)[C@H](CCC(=O)O)NC(=O)[C@H](C)NC(=O)[C@@H](N)Cc1c[nH]cn1)[C@@H](C)O)[C@@H](C)O)C(C)C)C(C)C)C(=O)N[C@@H](CCC(=O)O)C(=O)N[C@@H](Cc1c[nH]c2ccccc12)C(=O)N[C@@H](CC(C)C)C(=O)N[C@H](C(=O)N[C@@H](CCC(N)=O)C(=O)NCC(=O)N[C@@H](CCCNC(=N)N)C(=O)NCC(=O)O)C(C)C` [Example 11, N^ε22-[2-[2-[2-[[2-[2-[2-[[(4S)-4-carboxy-4-(13-carboxytridecanoylamino)butanoyl]amino]ethoxy]ethoxy]acetyl]amino]ethoxy]ethoxy]acetyl], N^ε27-[2-[2-[2-[[2-[2-[2-[[(4S)-4-carboxy-4-(13-carboxytridecanoylamino)butanoyl]amino]ethoxy]ethoxy]acetyl]amino]ethoxy]ethoxy]acetyl]-[Lys^22,Val^25,Arg^26,Lys^27,Glu^30,Gln^34]-GLP-1-(7-37)-peptide] (H-HAEGTFTSDVSSYLEK([AEEA-AEEA-γGlu-C14 diacid])QAVRK([AEEA-AEEA-γGlu-C14 diacid])FIEWLVQGRG-OH; N-terminus and C-terminus assumed): in data set [2], the “Dose-corrected exposure at 30 min” value was 66.

The values above are taken from patent US11117947B2, “Double-acylated GLP-1 derivatives” (Novo Nordisk A/S, priority 2011, dated 2021).
